Measurements as given in PMC8541017, “Potent and Selective Inhibitors of Human Monoamine Oxidase A from an Endogenous Lichen Fungus Diaporthe mahothocarpus” (Journal of Fungi, 2021).
Several values for one entry are separate records, joined by “and”; a condition that tells them apart may be missing. Identical values can stand only once. Like-named read-outs stand apart in the source and are kept apart here.

Tests used:
BACE1 = BACE1 (Homo sapiens, UniProt P56817); experiment: BACE1 activity assay (fluorescence kit); details: for IC50: IC50 BACE1; for remaining activity at 10 µM: read-out: Residual Activity at 10 µM (%) BACE1
Procedure: Assays for inhibitory activities of compounds against hMAO-A, hMAO-B, AChE, BChE, and BACE1 were performed at 10-µM concentration of inhibitor.

AChE = molecular target: T1, AChE (Electrophorus electricus, UniProt O42275); experiment: biochemical; set-up: species or system electric eel; details: for remaining activity at 10 µM: read-out: Residual Activity at 10 µM (%) AChE
T1 construct: AChE from electric eel and BChE from horse serum were used; from tissue; host or cells: electric eel

hMAO-A [1] = molecular target: T2, hMAO-A (Homo sapiens, UniProt P21397); experiment: biochemical; details: for Residual Activity (%) hMAO-A: 1-µM concentration (footnote a); for inhibition type for hMAO-A: Lineweaver–Burk plot; for SI (selectivity index): hMAO-B/hMAO-A using IC50 values; for remaining activity at 2 µg/mL: read-out: Residual Activity at 2 µg/mL (%) hMAO-A
T2 sequence (P21397 1-527): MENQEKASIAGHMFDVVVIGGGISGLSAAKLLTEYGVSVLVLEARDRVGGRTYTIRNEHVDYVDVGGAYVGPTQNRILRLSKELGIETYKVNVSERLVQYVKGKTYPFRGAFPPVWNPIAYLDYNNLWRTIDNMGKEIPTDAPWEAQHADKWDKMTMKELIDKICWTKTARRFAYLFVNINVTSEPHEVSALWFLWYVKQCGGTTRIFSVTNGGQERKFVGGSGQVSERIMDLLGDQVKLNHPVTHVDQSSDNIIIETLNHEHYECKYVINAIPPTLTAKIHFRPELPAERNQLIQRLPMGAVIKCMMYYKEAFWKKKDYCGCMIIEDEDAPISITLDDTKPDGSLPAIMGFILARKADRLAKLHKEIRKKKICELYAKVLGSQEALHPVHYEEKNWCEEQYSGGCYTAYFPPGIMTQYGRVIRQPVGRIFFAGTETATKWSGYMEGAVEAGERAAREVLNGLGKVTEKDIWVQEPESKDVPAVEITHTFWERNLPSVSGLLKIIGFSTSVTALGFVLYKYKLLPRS
Procedure: (§1) Human recombinant MAO-A and MAO-B were assayed in a reaction mixture of 0.5 mL containing 50 mM sodium phosphate buffer (pH 7.2) and the substrates (0.06 mM kynuramine for hMAO-A and 0.3 mM benzylamine for hMAO-B). […] [30, 31]. The reactions were started with the addition of substrates without preincubation of the enzyme and inhibitor.

hMAO-B [2] = molecular target: T3, hMAO-B (Homo sapiens, UniProt P27338); experiment: biochemical; details: for Residual Activity (%) hMAO-B: 1-µM concentration (footnote a)
T3 sequence (P27338 1-520): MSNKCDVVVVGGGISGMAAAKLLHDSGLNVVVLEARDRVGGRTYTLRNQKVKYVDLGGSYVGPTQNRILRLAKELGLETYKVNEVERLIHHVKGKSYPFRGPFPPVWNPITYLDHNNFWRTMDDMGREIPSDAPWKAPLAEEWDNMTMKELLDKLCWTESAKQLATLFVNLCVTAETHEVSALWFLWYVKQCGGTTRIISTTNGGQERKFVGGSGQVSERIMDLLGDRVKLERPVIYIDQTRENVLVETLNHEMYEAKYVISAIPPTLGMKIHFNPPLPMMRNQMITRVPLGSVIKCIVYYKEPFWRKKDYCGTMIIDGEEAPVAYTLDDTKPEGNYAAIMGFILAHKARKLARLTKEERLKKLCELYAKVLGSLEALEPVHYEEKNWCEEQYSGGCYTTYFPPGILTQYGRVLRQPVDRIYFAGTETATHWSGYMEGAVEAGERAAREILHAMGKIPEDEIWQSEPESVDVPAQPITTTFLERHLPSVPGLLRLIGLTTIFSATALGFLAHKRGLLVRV
Procedure: as §1

BChE = molecular target: T4, BChE (Equus caballus, UniProt P81908); experiment: biochemical; set-up: species or system horse; details: read-out: Residual Activity at 10 µM (%) BChE
T4 construct: from tissue; host or cells: horse serum
Procedure: AChE from electric eel and BChE from horse serum were used for cholinesterases and assayed with a slight modification of the Ellman method. Shortly, after pre-incubating the enzyme and inhibitor for 15 min in 100 mM of sodium phosphate buffer (pH 7.5), 0.5 mM acetylthiocholine iodide (ATCI) or butyrylthiocholine iodide (BTCI) was added as a substrate for AChE or BChE assay, respectively. Then, 0.5 mM 5,5-dithiobis (2-nitrobenzoic acid) (DTNB) was added for color development for a final volume of 0.5 mL. Enzyme activity was measured for 15 min at room temperature in a kinetic mode at 412 nm.

topoisomerase II = details: cited from earlier work
hMAO-A [3] = molecular target: T2, hMAO-A; assay type: biochemical; details: for reversibility of hMAO-A inhibition: recovery test after dialysis; for residual hMAO-A activity after dialysis / residual hMAO-A activity before dialysis: ~2 × IC50: AT 0.040 µM, HAT 0.60 µM, MED 18.0 µM, toloxatone 2.0 µM, clorgyline 0.014 µM
hMAO-A [4] = molecular target: T2, hMAO-A; details: cited from earlier work
hMAO-B [5] = molecular target: T3, hMAO-B; set-up: method as in PMID 33530616; details: cited from earlier work
MAO = details: read-out: IC50 MAO inhibitory activity; cited from earlier work

T4 sequence (P81908 whole entry): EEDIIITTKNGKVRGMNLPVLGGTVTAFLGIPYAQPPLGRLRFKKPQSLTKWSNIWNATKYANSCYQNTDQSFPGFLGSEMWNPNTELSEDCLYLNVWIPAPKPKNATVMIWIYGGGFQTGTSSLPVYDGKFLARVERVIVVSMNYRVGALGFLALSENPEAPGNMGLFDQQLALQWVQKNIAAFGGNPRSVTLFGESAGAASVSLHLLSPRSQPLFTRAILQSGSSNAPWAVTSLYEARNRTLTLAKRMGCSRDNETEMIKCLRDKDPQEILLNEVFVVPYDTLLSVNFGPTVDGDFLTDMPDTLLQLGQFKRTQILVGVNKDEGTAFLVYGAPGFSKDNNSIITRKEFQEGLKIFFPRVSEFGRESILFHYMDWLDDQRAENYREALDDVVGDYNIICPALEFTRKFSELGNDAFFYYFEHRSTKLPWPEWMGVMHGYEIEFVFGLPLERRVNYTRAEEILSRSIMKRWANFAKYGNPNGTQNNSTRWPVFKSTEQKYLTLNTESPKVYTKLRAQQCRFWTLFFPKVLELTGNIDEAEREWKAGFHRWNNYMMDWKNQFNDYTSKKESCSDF
BACE1, sequence (P56817 46-501): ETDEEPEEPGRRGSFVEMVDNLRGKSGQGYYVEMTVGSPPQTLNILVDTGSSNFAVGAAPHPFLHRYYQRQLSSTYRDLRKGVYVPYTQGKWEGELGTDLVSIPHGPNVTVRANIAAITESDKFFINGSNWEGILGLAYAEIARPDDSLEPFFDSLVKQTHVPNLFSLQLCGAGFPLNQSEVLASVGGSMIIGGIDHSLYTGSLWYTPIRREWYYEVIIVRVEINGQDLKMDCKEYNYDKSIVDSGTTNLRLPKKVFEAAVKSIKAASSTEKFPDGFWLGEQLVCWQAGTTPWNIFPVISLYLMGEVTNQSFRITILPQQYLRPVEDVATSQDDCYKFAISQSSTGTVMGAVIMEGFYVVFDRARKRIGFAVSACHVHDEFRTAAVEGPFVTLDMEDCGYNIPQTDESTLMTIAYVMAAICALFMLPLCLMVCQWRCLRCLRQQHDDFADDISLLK
T1 sequence (O42275 24-633): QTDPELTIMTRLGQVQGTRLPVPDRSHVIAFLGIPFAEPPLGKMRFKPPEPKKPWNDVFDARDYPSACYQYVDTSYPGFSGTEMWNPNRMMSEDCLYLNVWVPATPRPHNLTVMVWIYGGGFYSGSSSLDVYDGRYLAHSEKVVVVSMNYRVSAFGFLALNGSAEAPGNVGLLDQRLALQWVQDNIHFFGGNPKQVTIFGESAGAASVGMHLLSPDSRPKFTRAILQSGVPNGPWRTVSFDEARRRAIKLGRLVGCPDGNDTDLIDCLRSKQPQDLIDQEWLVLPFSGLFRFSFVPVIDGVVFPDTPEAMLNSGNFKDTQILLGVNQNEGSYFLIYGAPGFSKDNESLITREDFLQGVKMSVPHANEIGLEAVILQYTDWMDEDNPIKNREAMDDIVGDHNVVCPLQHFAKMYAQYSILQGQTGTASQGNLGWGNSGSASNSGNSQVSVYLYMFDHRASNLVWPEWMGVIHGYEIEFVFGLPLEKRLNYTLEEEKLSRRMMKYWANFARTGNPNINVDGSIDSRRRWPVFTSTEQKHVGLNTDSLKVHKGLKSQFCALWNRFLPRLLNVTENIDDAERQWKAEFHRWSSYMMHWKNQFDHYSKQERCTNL

Row | SMILES | IC50 (BACE1) [µM] | remaining activity at 10 µM (BACE1) [%] | IC50 (AChE) [µM] | remaining activity at 10 µM (AChE) [%] | Ki (hMAO-A [1]) [µM] | times higher hMAO-A inhibitory activity than toloxatone (hMAO-A [1]) [times] | Residual Activity (%) hMAO-A (hMAO-A [1]) [%] | IC50 (hMAO-A [1]; IC50 hMAO-A) [µM] | inhibition type for hMAO-A (hMAO-A [1]) | SI (selectivity index) (hMAO-A [1]) | remaining activity at 2 µg/mL (hMAO-A [1]) [%] | IC50 (hMAO-B [2]) [µM] | Residual Activity (%) hMAO-B (hMAO-B [2]) [%] | remaining activity at 10 µM (BChE) [%] | reversibility of hMAO-A inhibition (hMAO-A [3]) | residual hMAO-A activity after dialysis (hMAO-A [3]) [%] | residual hMAO-A activity before dialysis (hMAO-A [3]) [%] | IC50 (hMAO-A [4]) [µM] | further results
1 | Cc1cc(O)cc2oc(=O)c3c(O)cc(O)cc3c12 [AT, alternariol] | 36.7 ± 3.3 | 80.9 ± 0.2 | 10 ± 0.9 | 58.7 ± 2 | 0.0075 | 54.0 | −3.1 ± 0.0 | 0.02 ± 0.001 | reversible competitive inhibitors | 1035 | -5.41 ± 0.98 | 20.7 ± 2.2 | 75.6 ± 2.3 | 93.3 ± 4.1 | reversible inhibitors | 60.5 | 33.5 | – | concentration at which ROS formation and topoisomerase II interaction relate to toxicity (topoisomerase II): > 10 µM
2 | Cc1c(O)c(O)cc2oc(=O)c3c(O)cc(O)cc3c12 [HAT, 5′-hydroxy-alternariol] | 24.7 | 71.3 ± 3.8 | 19.9 ± 0.2 | 65.6 ± 3.8 | 0.116 | 3.5 | 17.7 ± 1.1 | 0.31 ± 0.02 | reversible competitive inhibitors | >129 | 3.39 ± 3.43 | > 40 | 83.3 ± 4.0 | 96.2 ± 2.3 | reversible inhibitors | 79.4 | 42.1 | – | times effective against hMAO-A than alternariol monomethyl ether (hMAO-A [1]; ratio of IC50 values): 5.5 times
3 | CC(=O)O[C@H]1C=CC(=O)O[C@H]1[C@@H]1[C@H](C)[C@H]2C=CC=C[C@@H]1O2 [MED, mycoepoxydiene] | 35.9 ± 0.3 | 80.5 ± 2.7 | – | 65.2 ± 2.7 | – | – | – | – | reversible competitive inhibitors | >4.59 | – | – | – | 95.5 ± 5.5 | reversible inhibitors | 83.7 | 28.7 | – | IC50 (AChE; read-out: IC50 AChE): 18.6 ± 1.3 µM; Ki (hMAO-A [1]; Lineweaver–Burk secondary plot, read-out: Ki hMAO-A): 3.76 µM; remaining activity at 2 µg/mL (hMAO-A [1]; isolated compounds from ELF29, 2 µg/mL): 66.7 ± 1.84%; IC50 (hMAO-A [1]; read-out: IC50 hMAO-A): 8.68 µM and 8.7 µM; remaining activity at 10 µM (hMAO-A [1]; read-out: Residual Activity at 10 µM (%) hMAO-A): 42.7 ± 0.9%; IC50 (hMAO-B [2]; read-out: IC50 hMAO-B): > 40 µM; remaining activity at 10 µM (hMAO-B [2]; read-out: Residual Activity at 10 µM (%) hMAO-B): 85.4 ± 6.9%
4 | COc1cc(O)c2c(=O)oc3cc(O)cc(C)c3c2c1 [alternariol monomethyl ether] | – | – | – | – | – | – | – | – | – | – | – | – | – | – | – | – | – | 1.71 | –
5 | CC1CC(=O)c2c(O)cccc2O1 (centres unmarked) [hydroxy-2-methyl-chroman-4-one] | – | – | – | – | – | – | – | – | – | – | – | – | – | – | – | – | – | 14 | IC50 (hMAO-B [5]): 3.23 µM
6 | CCCCCC(=O)c1c(O)cc2c(c1O)C(=O)c1c(O)cc(OC)cc1C2=O [solorinic acid] | – | – | – | – | – | – | – | – | – | – | – | – | – | – | – | – | – | – | IC50 (MAO): 14.3 µM
